Data: patent US20020183384A1, “Methods of treating nuclear factor-kappa B mediated diseases and disorders” (priority 2001, published 2002)
Where two headings read alike, the source gives them in different places.

Tested on: NF-κB mediated transcription
Assay: NF-κB driven β-lactamase reporter assay in ECV-304 NF-κB.βlaZ cells (AURORA CCF2 fluorescence)
Format: cell-based, human
Details: 10 μM compound, ECV-304 NF-κB.βlaZ cells stimulated with 10 ng/mL TNF-α or 100 pg/mL IL-1β, 6 hours at 37° C., inhibition of maximum blue/green ratio; for inhibition at 10 µM: Homo sapiens, read-out: Percent Inhibition at 10 μM
How it was run: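 Blue/green (460/530 nm, excitation 395 nm) CCF2 emission ratio quantified NF-κB-driven β-lactamase expression in the stably transfected endothelial-like ECV-304 clone 1E8.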

| Compound | inhibition at 10 µM (ECV-304, 6 h) [%] | further results |
| --- | --- | --- |
| CC(C)c1cc(C(C)(C)O)cc(C(C)C)c1CC(=O)NS(=O)(=O)Oc1c(C(C)C)cccc1C(C)C [Example 202, {[4-(1-Hydroxy-1-methyl-ethyl)-2,6-diisopropyl-phenyl]-acetyl}-sulfamic acid 2,6-diisopropyl-phenyl ester] | 25.4 | – |
| CC(C)c1cc(C(C)C)c(CC(=O)NS(=O)(=O)Oc2c(C(C)C)cc(Br)cc2C(C)C)c(C(C)C)c1 [Example 203, [(2,4,6-Triisopropyl-phenyl)-acetyl]-sulfamic acid 4-bromo-2,6-diisopropyl-phenyl ester] | 52.2 | – |
| CC(C)c1cc(C(C)C)c(CC(=O)NS(=O)(=O)Oc2c(C(C)C)cc(NC(=O)C(N)Cc3c[nH]c4ccccc34)cc2C(C)C)c(C(C)C)c1 (stereo not shown) [Example 204, [(2,4,6-Triisopropyl-phenyl)-acetyl]-sulfamic acid 4-[2-amino-3-(1H-indol-3-yl)-propionylamino]-2,6-diisopropyl-phenyl ester] | 70 | – |
| CC(C)c1cc(C(C)C)c(CC(=O)NS(=O)(=O)Oc2c(C(C)C)cc(OCCCN(C)C)cc2C(C)C)c(C(C)C)c1 [Example 205, [(2,4,6-Triisopropyl-phenyl)-acetyl]-sulfamic acid 4-(3-dimethylamino-propoxy)-2,6-diisopropyl-phenyl ester] | 11.7 | – |
| CC(C)c1cc(C(C)C)c(CC(=O)NS(=O)(=O)Oc2c(C(C)C)cc(NC(=O)[C@@H](C)N)cc2C(C)C)c(C(C)C)c1 [Example 206, [2-(2,4,6-Triisopropyl-phenyl)-acetyl]-sulfamic acid 4-((R)-2-amino-propionylamino)-2,6-diisopropyl-phenyl ester; compound with trifluoro-acetic acid] | 47.9 | – |
| CC(C)c1cc(C(C)C)c(CC(=O)NS(=O)(=O)Oc2c(C(C)C)cc(NC(=O)C(C)(C)N)cc2C(C)C)c(C(C)C)c1 [Example 207, [(2,4,6-Triisopropyl-phenyl)-acetyl]-sulfamic acid 4-(2-amino-2-methyl-propionylamino)-2,6-diisopropyl-phenyl ester] | 60.3 | – |
| CC(C)c1cc(C(C)C)c(CC(=O)NS(=O)(=O)Oc2c(C(C)C)cc(OCCCN)cc2C(C)C)c(C(C)C)c1 [Example 208, [2-(2,4,6-Triisopropyl-phenyl)-acetyl]-sulfamic acid 4-(3-amino-propoxy)-2,6-diisopropyl-phenyl ester] | 22.4 | – |
| CC(C)c1cc(C(C)C)c(CC(=O)NS(=O)(=O)Oc2c(C(C)C)cc(SC#N)cc2C(C)C)c(C(C)C)c1 [Example 209, [(2,4,6-Triisopropyl-phenyl)-acetyl]-sulfamic acid 2,6-diisopropyl-4-thiocyanato-phenyl ester] | 56.8 | – |
| Cc1cc(C(C)C)c(OS(=O)(=O)NC(=O)Cc2c(C(C)C)cc(C(C)C)cc2C(C)C)c(C(C)C)c1 [Example 210, [(2,4,6-Triisopropyl-phenyl)-acetyl]-sulfamic acid 2,6-diisopropyl-4-methyl-phenyl ester] | 52.5 | – |
| CC(C)c1cccc(C(C)C)c1OS(=O)(=O)NC(=O)C1(c2ccc(N(C)C)cc2)CCCC1 [Example 211, [1-(4-Dimethylamino-phenyl)-cyclopentanecarbonyl]-sulfamic acid 2,6-diisopropyl-phenyl ester] | 24.6 | – |
| CC(C)c1cc(C(C)C)c(CC(=O)NS(=O)(=O)Oc2c(C(C)C)cc(C#N)cc2C(C)C)c(C(C)C)c1 [Example 212, [(2,4,6-Triisopropyl-phenyl)-acetyl]-sulfamic acid 4-cyano-2,6-diisopropyl-phenyl ester] | 60.2 | – |
| CC(C)c1cccc(C(C)C)c1OS(=O)(=O)NC(=O)C1(c2ccc([N+](=O)[O-])cc2)CCCC1 [Example 213, [1-(4-Nitro-phenyl)-cyclopentanecarbonyl]-sulfamic acid 2,6-diisopropyl-phenyl ester] | 19.7 | – |
| CSCCC(NC(=O)OC(C)(C)C)C(=O)Nc1cc(C(C)C)c(OS(=O)(=O)NC(=O)Cc2c(C(C)C)cc(C(C)C)cc2C(C)C)c(C(C)C)c1 (stereo not shown) [Example 214, [1-(3,5-Diisopropyl-4-{[(2,4,6-triisopropyl-phenyl)-acetyl]sulfamoyloxy}-phenylcarbamoyl)-3-methylsulfanyl-propyl]-carbamic acid tert-butyl ester] | 71.7 | – |
| CC(C)c1cc(C(C)C)c(CC(=O)NS(=O)(=O)Oc2c(C(C)C)cc(NC(=O)Nc3c(C(C)C)cccc3C(C)C)cc2C(C)C)c(C(C)C)c1 [Example 215, [(2,4,6-Triisopropyl-phenyl)-acetyl]-sulfamic acid 4-[3-(2,6-diisopropyl-phenyl)-ureido]-2,6-diisopropyl-phenyl ester] | 74.7 | – |
| CC(C)C[C@H](N)C(=O)Nc1cc(C(C)C)c(OS(=O)(=O)NC(=O)Cc2c(C(C)C)cc(C(C)C)cc2C(C)C)c(C(C)C)c1 [Example 216, [2-(2,4,6-Triisopropyl-phenyl)-acetyl]-sulfamic acid 4-((S)-2-amino-4-methyl-pentanoylamino)-2,6-diisopropyl-phenyl ester; compound with trifluoro-acetic acid] | 65.4 | – |
| CC(C)c1cccc(C(C)C)c1OS(=O)(=O)NC(=O)NCC1(c2ccc(N(C)C)cc2)CCCC1 [Example 217, Sulfamic acid, [[[[1-[4-(dimethylamino)phenyl]cyclopenty]methyl]-amino]carbonyl]-2,6-bis(1-methylethyl)phenyl ester] | – | Percent Inhibition at 10 μM: 37.08% |
| CC(C)c1cc(C(C)C)c(CC(=O)NS(=O)(=O)Oc2c(C(C)C)cc(NC(=O)Nc3ccccc3)cc2C(C)C)c(C(C)C)c1 [Example 218, [(2,4,6-Triisopropyl-phenyl)-acetyl]-sulfamic acid 2,6-diisopropyl-4-(3-phenyl-ureido)-phenyl ester] | < 10 | – |
| CC(C)c1cc(C(C)C)c(CC(=O)NS(=O)(=O)Oc2c(C(C)C)cc(NC(=O)NC(C)(C)C)cc2C(C)C)c(C(C)C)c1 [Example 219, [(2,4,6-Triisopropyl-phenyl)-acetyl]-sulfamic acid 4-(3-tert-butyl-ureido)-2,6-diisopropyl-phenyl ester] | 15.2 | – |
| CC(C)c1cc(C(C)C)c(CC(=O)NS(=O)(=O)Oc2c(C(C)C)cc(NC(=O)CCN)cc2C(C)C)c(C(C)C)c1 [Example 220, [2-(2,4,6-Triisopropyl-phenyl)-acetyl]-sulfamic acid 4-(3-amino-propionylamino)-2,6-diisopropyl-phenyl ester; compound with trifluoro-acetic acid] | 65.5 | – |
| CC(C)(C)c1cccc(C(C)(C)C)c1OC(=O)NS(=O)(=O)Nc1ccccc1Cc1ccccc1 [Example 221, Carbamic acid, [[[2-(phenylmethyl)phenyl]amino]sulfonyl]-, 2,6-bis(1,1-dimethylethyl)phenyl ester] | – | inhibition at 10 µM: 44.7% |
| CC(C)c1cccc(C(C)C)c1OS(=O)(=O)NC(=O)N1CCc2ccccc21 [Example 222, (2,3-Dihydro-indole-1-carbonyl)-sulfamic acid 2,6-diisopropyl-phenyl ester] | < 10 | – |
| CC(C)c1cccc(C(C)C)c1OS(=O)(=O)NC(=O)NC(c1ccccc1)(c1ccccc1)c1ccccc1 [Example 223, Sulfamic acid, [[(triphenylmethyl)amino]carbonyl]-, 2,6-bis(1-methylethyl)phenyl ester] | 68.2 | – |
| CC(C)c1cc(C(C)C)c(CC(=O)NS(=O)(=O)Oc2c(C(C)C)cc(C=CC#N)cc2C(C)C)c(C(C)C)c1 [Example 224, [(2,4,6-Triisopropyl-phenyl)-acetyl]-sulfamic acid 4-(2-cyano-vinyl)-2,6-diisopropyl-phenyl ester] | < 10 | – |
| CC(C)c1cc(C(C)C)c(CC(=O)NS(=O)(=O)Oc2c(C(C)C)cc(NS(=O)(=O)c3cccs3)cc2C(C)C)c(C(C)C)c1 [Example 225, [(2,4,6-Triisopropyl-phenyl)-acetyl]-sulfamic acid 2,6-diisopropyl-4-(thiophene-2-sulfonylamino)-phenyl ester] | 26.4 | – |
| CC(C)c1cc(C(C)C)c(CC(=O)NS(=O)(=O)Oc2c(C(C)C)cc(NS(=O)(=O)c3cccc4c(N(C)C)cccc34)cc2C(C)C)c(C(C)C)c1 [Example 226, [(2,4,6-Triisopropyl-phenyl)-acetyl]-sulfamic acid 4-(5-dimethylamino-naphthalene-1-sulfonylamino)-2,6-diisopropyl-phenyl ester] | 46.3 | – |
| CC(C)c1cc(C(C)C)c(CC(=O)NS(=O)(=O)Oc2c(C(C)C)cc(NS(C)(=O)=O)cc2C(C)C)c(C(C)C)c1 [Example 227, [(2,4,6-Triisopropyl-phenyl)-acetyl]-sulfamic acid 2,6-diisopropyl-4-methanesulfonylamino-phenyl ester] | 77.3 | – |
| COC(=O)c1cc(C(C)C)c(OS(=O)(=O)NC(=O)Cc2c(C(C)C)cc(C(C)C)cc2C(C)C)c(C(C)C)c1 [Example 228, 3,5-Diisopropyl-4-{[(2,4,6-triisopropyl-phenyl)-acetyl]sulfamoyloxy}-benzoic acid methyl ester] | 76.1 | – |
| CC(C)c1cc(C(C)C)c(CC(=O)NS(=O)(=O)Oc2c(C(C)C)cc(NC(=O)[C@@H](N)CO)cc2C(C)C)c(C(C)C)c1 [Example 230, [2-(2,4,6-Triisopropyl-phenyl)-acetyl]-sulfamic acid 4-((S)-2-amino-3-hydroxy-propionylamino)-2,6-diisopropyl-phenyl ester; compound with trifluoro-acetic acid] | 75.2 | – |
